{"source": "patent US8790654B2", "about": "“Glycosylceramide adjuvant for saccharide antigens” (Novartis AG, priority 2004, dated 2014)", "type_in_all_cases": "in vivo", "key": {"[1]": {"tested_on": "S. pneumoniae polysaccharides", "test": "S. pneumoniae-specific antibody titres by ELISA in mice immunised with Streptopur with or without α-GalCer"}, "[2]": {"tested_on": "S. pneumoniae-specific B cells", "test": "Number of S. pneumoniae-specific B cells in spleens by Elispot", "details": "mice primed with 0.1 or 1.0 μg α-GalCer and boosted with 11.5 μg Streptopur 12 weeks later, compared with PBS prime and Streptopur boost; Elispot at 18-22 weeks"}, "MenC polysaccharide": {"tested_on": "MenC polysaccharide", "test": "MenC-specific Ig titre in mice immunised with MenC, MenC+CRM or MenC-CRM conjugate with or without α-GalCer", "details": "30 μg MenC-CRM conjugate and α-GalCer, compared with MenC-CRM conjugate and PBS; three immunisations", "experimental": "C) Immunisation schedule for mice with different polysaccharides, plain, conjugated or admixed with protein carriers, with and without α-GalCer. Ten groups of wild-type C57BL/6 mice were primed on day 0 with: 1) PBS, 2) 0.1 μg with α-GalCer, 3) 10 μg MenC polysaccharide, 4) 20 μg CRM protein carrier, 5) 30 μg of a MenC-CRM conjugate, 6) 10 μg MenC polysaccharide admixed with CRM protein carrier, or the compositions in 3)-6) and α-GalCer (groups 7-10). Mice were boosted two and four weeks after they were primed with the same composition with which they were primed. Mice were bled 2, 4 and 6 weeks after initial priming (2wp1, 2wp2 and 2wp3) and the levels of antibodies against both the MenC polysaccharide and the CRM carrier were measured.\nFIG. 5: α-GalCer enhances the specific antibody response against both the MenC polysaccharide and the CRM protein carrier in a MenC-CRM conjugate. Wild-type mice were primed with 10 μg MenC polysaccharide, 20 μg CRM protein carrier, 10 μg MenC polysaccharide admixed with CRM protein carrier (MenC+CRM), or 30 μg of a MenC-CRM conjugate, or the same compositions with α-GalCer. […]\nFIG. 7: Antibody response is enhanced in mice immunised with α-GalCer and MenC-CRM conjugate. […] The MenC-specific titre was measured one week post the second immunisation (1wp2) and one week post third immunisation (1wp3)."}, "MenA polysaccharide": {"tested_on": "MenA polysaccharide", "test": "MenA-specific antibody titres in mice immunised with MenA polysaccharide or MenA-CRM conjugate with or without α-GalCer", "experimental": "FIG. 6: α-GalCer enhances the immune response to a MenA-CRM conjugate. Mice were immunised with 10 μg MenA polysaccharide or MenA-CRM conjugate with or without α-GalCer. Antibodies titres against the MenA polysaccharide were measured 4, 8 and 12 days post priming. α-GalCer enhanced the immune response to the MenA polysaccharide."}, "Hib": {"tested_on": "Hib", "test": "Hib-specific Ig titre in mice immunised with Hib-HSA conjugate mixed with PBS, α-GalCer or MF59", "details": "15 μg Hib-HSA conjugate mixed with α-GalCer, compared with Hib-HSA conjugate and PBS; three immunisations; 1wp2 and 1wp3", "experimental": "FIG. 11: Antibody response is enhanced in mice immunised with α-GalCer and Hib-HSA conjugate. […] Each group of mice was immunised three times. The Hib-specific titre was measured 1 week post the second immunisation (1wp2) and 1 week post the third immunisation (1wp3)."}}, "note": "“Also recorded” adds a separate entry of the source."}
{"smiles": "CCCCCCCCCCCCCCCCCCCCCCCCCC(=O)N[C@@H](CO[C@H]1O[C@H](CO)[C@H](O)[C@H](O)[C@H]1O)[C@H](O)[C@H](O)CCCCCCCCCCCCCC", "note": "[α-GalCer, α-galactosylceramide]", "values": [{"measurement": "S. pneumoniae specific IgM antibodies (geomean) by age of mice", "setting": "[1]; 8 days after priming mice of different ages with 3.5 μg Streptopur and 0.1 μg α-GalCer, compared with Streptopur alone", "value": "suppresses; also recorded: suppression"}, {"measurement": "S. pneumoniae-specific antibody titres in NKT-deficient mice", "setting": "[1]; JA18−/−, CD1d−/− and CD1d−/+ mice primed with 3.5 μg Streptopur and 0.1 μg α-GalCer, compared with Streptopur alone, 4, 8, 12 days after priming", "value": "no significant difference"}, {"measurement": "S. pneumoniae-specific antibody titers after boost", "setting": "[1]; mice primed with Streptopur and 0.1 μg α-GalCer and boosted with Streptopur, compared with primed and boosted with Streptopur alone, 8 days after boosting", "value": "lower"}, {"measurement": "S. pneumoniae-specific antibody titres (IgM, geomean)", "setting": "[1]; wild-type C57BL/6 mice primed i.m. with Streptopur and 0.1 μg α-GalCer, compared with Streptopur alone, 4, 8, 12 days after priming", "value": "lower; also recorded: reduced"}, {"measurement": "Number of S. pneumoniae-specific B cells per 10^6 splenocytes", "setting": "[2]", "value": "lower numbers"}, {"measurement": "MenC-specific Ig titres", "setting": "MenC polysaccharide", "value": "enhanced; also recorded: significant increase"}, {"measurement": "MenA-specific Ig titres", "setting": "MenA polysaccharide; MenA-CRM conjugate and α-GalCer, compared with conjugate without α-GalCer, 4, 8, 12 days post priming", "value": "enhances; also recorded: increase"}, {"measurement": "Inhibitory action on the response to unconjugated MenA saccharides", "setting": "MenA polysaccharide; unconjugated MenA polysaccharide with α-GalCer", "value": "not observed"}, {"measurement": "Hib-specific Ig titres", "setting": "Hib", "value": "enhanced; also recorded: considerably higher"}]}
